Patent US11446226B2, “Composition for preventing or improving intrinsic aging comprising paeoniflorin or albiflorin” (Amorepacific Corporation, priority 2017, dated 2022)

Assays:
MMP-1 [1] = test: MMP-1 inhibition effect in fibroblasts, stimulation source TNF-α (MMP-1 ELISA normalized to CCK8 cell viability); assay type: cell-based; details: TNF-α 10 ng/mL; for MMP-1 level with respect to the negative control group treated with TNF-α as 100: 0.1 or 1 ppm; for Normalized MMP-1 level relative to TNF-α control (100%): 48 hours
Procedure: Fibroblasts acquired from ATCC were transferred to a medium containing 10% (v/v) FBS and were cultured at 37° C. for 24 hours under the condition of 5% CO2. After replacing the medium with a serum-free medium, the cells were cultured for at least 6 hours. Then, after treating with 10 ng/mL TNF-α, as an intrinsic inflammatory factor causing intrinsic aging, and then with 0.1 ppm or 1 ppm paeoniflorin (Sigma-Aldrich), the cells were cultured for 48 hours. 48 hours later, the culture was separated partly and MMP-1 ELISA was conducted according to a method commonly employed in the art. A negative control group was not treated with paeoniflorin, and a positive control group was treated with 2 μM ATRA (all-trans retinoic acid) instead of the paeoniflorin. Subsequently, the remaining culture was separated partly and cell viability was measured by CCK8 (cell count kit 8) assay according to a method commonly employed in the art. The result was normalized to the result of the MMP-1 ELISA. Meanwhile, the MMP-1 inhibition effect by albiflorin was investigated in the same manner as the MMP-1 inhibition effect by paeoniflorin, except that the cells were treated with 0.1 ppm or 1 ppm albiflorin (Wako Chemical) instead of the 0.1 ppm or 1 ppm paeoniflorin. The MMP-1 inhibition effect by a combination of paeoniflorin and albiflorin was investigated in the same manner as the MMP-1 inhibition effect by paeoniflorin, except that the cells were treated with a 10:1 mixture of paeoniflorin and albiflorin (P+A) at 0.1+0.01 ppm or 1+0.1 ppm instead of the 0.1 ppm or 1 ppm paeoniflorin.

MMP-1 [2] = test: MMP-1 inhibition effect in fibroblasts, stimulation source UV (UVB; MMP-1 ELISA normalized to CCK8 cell viability); assay type: cell-based; details: 48 hours
Procedure: Fibroblasts acquired from ATCC were transferred to a medium containing 10% (v/v) FBS and were cultured at 37° C. for 24 hours under the condition of 5% CO2. After replacing the medium with a serum-free medium, the cells were cultured for at least 6 hours. Then, after treating with 30 mJ/cm^2 UVB, as an extrinsic stimulating factor causing extrinsic aging, and then with 0.1 ppm or 1 ppm paeoniflorin (Sigma-Aldrich), the cells were cultured for 48 hours. 48 hours later, the culture was separated partly and MMP-1 ELISA was conducted according to a method commonly employed in the art. A negative control group was not treated with paeoniflorin, and a positive control group was treated with 2 μM ATRA (all-trans retinoic acid) instead of the paeoniflorin.
Subsequently, the remaining culture was separated partly and cell viability was measured by CCK8 (cell count kit 8) assay according to a method commonly employed in the art. The result was normalized to the result of the MMP-1 ELISA.
Meanwhile, the MMP-1 inhibition effect by albiflorin was investigated in the same manner as the MMP-1 inhibition effect by paeoniflorin, except that the cells were treated with 0.1 ppm or 1 ppm albiflorin (Wako Chemical) instead of the 0.1 ppm or 1 ppm paeoniflorin.

[3] = 0.1 ppm, with respect to negative control
[4] = 1 ppm, with respect to negative control
[5] = UVB 30 mJ/cm^2, 0.1 ppm, with respect to negative control
[6] = UVB 30 mJ/cm^2, 1 ppm, with respect to negative control

Row | SMILES | MMP-1 level with respect to the negative control group treated with TNF-α as 100 (MMP-1 [1]) | Normalized MMP-1 level relative to TNF-α control (100%) (MMP-1 [1]; [3]) [%] | Normalized MMP-1 level relative to TNF-α control (100%) (MMP-1 [1]; [4]) [%] | Normalized MMP-1 Inhibition (%) (MMP-1 [2]; [5]) | Normalized MMP-1 Inhibition (%) (MMP-1 [2]; [6]) | Normalized MMP-1 level relative to TNF-α control (100%) (MMP-1 [1]; positive control 2 μM ATRA) [%] | Normalized MMP-1 Inhibition (%) (MMP-1 [2]; UVB 30 mJ/cm^2, positive control 2 μM ATRA)
1 | C[C@]12C[C@@H](O)[C@@H]3C[C@@]1(O[C@@H]1O[C@H](CO)[C@@H](O)[C@H](O)[C@H]1O)[C@]3(COC(=O)c1ccccc1)C(=O)O2 [Albiflorin, albiflorin] | about 60% | 63.25 | 59.44 | −5.29 | −10.96 | – | –
2 | C[C@@]12C[C@@]3(O)O[C@@H](O1)[C@]1(COC(=O)c4ccccc4)[C@H]3C[C@@]12O[C@@H]1O[C@H](CO)[C@@H](O)[C@H](O)[C@H]1O [Paeoniflorin, paeoniflorin] | about 60% | 69.34 | 66.49 | −3.27 | −22.03 | – | –
3 | CC1=C(/C=C/C(C)=C/C=C/C(C)=C/C(=O)O)C(C)(C)CCC1 [Positive control, all-trans retinoic acid, reference compound] | – | – | – | – | – | 48.75 | 25.72
